Source: ChEMBL document CHEMBL1127718, “Quinoline-4-carboxylic acids as angiotensin II receptor antagonists” (Bioorg Med Chem Lett, 1994)
pKi: −log10 of the molar value.

Key:
Oryctolagus cuniculus = organism: Oryctolagus cuniculus; assay: In vitro functional antagonism was determined by ability of a single concentration of compound to block AII induced contractions in rabbit aortic smooth muscle strip; conditions: Aorta
[1] = target: T1, Type-1 angiotensin II receptor B (Rattus norvegicus, UniProt P29089); assay: Inhibition of [125I]Sar1,Ile8 angiotensin II binding to Angiotensin II receptor type 1 in rat adrenocortical membrane; format: cell membranes
T1 sequence (P29089 whole entry): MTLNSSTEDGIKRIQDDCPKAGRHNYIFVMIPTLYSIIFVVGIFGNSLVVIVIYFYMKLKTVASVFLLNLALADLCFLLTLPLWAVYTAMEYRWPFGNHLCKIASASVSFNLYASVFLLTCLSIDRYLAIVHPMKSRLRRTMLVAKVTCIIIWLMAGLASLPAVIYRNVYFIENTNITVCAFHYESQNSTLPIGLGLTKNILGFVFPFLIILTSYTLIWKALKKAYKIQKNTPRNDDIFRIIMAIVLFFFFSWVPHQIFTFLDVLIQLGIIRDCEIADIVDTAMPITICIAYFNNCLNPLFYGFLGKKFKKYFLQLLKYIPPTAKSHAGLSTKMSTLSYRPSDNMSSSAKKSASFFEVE

SMILES | Kb (Oryctolagus cuniculus) [nM] | pKi [1]
Cc1cccc2c(C(=O)O)c(Oc3ccc(-c4ccccc4-c4nnn[nH]4)cc3)c(C3CC3)nc12 | 8.3 | 5.89
Cc1cccc2nc(C3CC3)c(Oc3ccc(-c4ccccc4-c4nnn[nH]4)cc3)c(C(=O)O)c12 | 0.4 | 7.92
O=C(O)c1c(Oc2ccc(-c3ccccc3-c3nnn[nH]3)cc2)c(C2CC2)nc2cccnc12 | 0.67 | 8.68
O=C(O)c1c(Oc2ccc(-c3ccccc3-c3nn[nH]n3)cc2)c(C2CC2)nc2ccccc12 | 0.061 | 8.54
Cc1nc2ccccc2c(C(=O)O)c1Oc1ccc(-c2ccccc2-c2nn[nH]n2)cc1 | 1.1 | 8.49
O=C(O)c1c(Oc2ccc(-c3ccccc3-c3nnn[nH]3)cc2)c(C2CC2)nc2ncccc12 | 0.76 | 8.34
O=C(O)c1cccc2nc(C3CC3)c(Oc3ccc(-c4ccccc4-c4nn[nH]n4)cc3)c(C(=O)O)c12 | 2 | 6.92
CCc1nc2ccccc2c(C(=O)O)c1Oc1ccc(-c2ccccc2-c2nn[nH]n2)cc1 | 0.12 | 8.23
O=C(O)c1c(Oc2ccc(-c3ccccc3-c3nnn[nH]3)cc2)c(C2CC2)nc2ccc(F)cc12 | 0.61 | 7.85
CCCc1nc2ccccc2c(C(=O)O)c1Oc1ccc(-c2ccccc2-c2nnn[nH]2)cc1 | 0.091 | 8.47
COc1ccc2nc(C3CC3)c(Oc3ccc(-c4ccccc4-c4nn[nH]n4)cc3)c(C(=O)O)c2c1 | 0.2 | 7.48
O=C(O)c1c(Oc2ccc(-c3ccccc3-c3nn[nH]n3)cc2)c(C2CC2)nc2cc(Cl)ccc12 | 0.18 | 7.49
